Reference: ChEMBL document CHEMBL1201862, “PubChem BioAssay data set” (2004)
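Each compound was tested at five concentrations against cells in 96-well plates for 48 hours. Abbreviation: GI50, concentration required for 50% inhibition of growth.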 Active and inactive are the calls of the source. No stated cut-off is given here; in the data, active = GI50 up to about 1.1 µM and inactive = higher.

What was measured:
Test in all cases: NCI-60 cell line screen, 48 h
[1] = system: 786-0
[2] = system: A549
[3] = system: ACHN
[4] = system: COLO 205
[5] = system: EKVX
[6] = system: HOP-62
[7] = system: HT-29
[8] = system: MDA-MB-231
[9] = system: MOLT-4
[10] = system: NCI-H23
[11] = system: NCI-H522
[12] = system: PC-3
[13] = system: RPMI-8226
[14] = system: RXF 393
[15] = system: SF-268
[16] = system: SK-MEL-5
[17] = system: SK-OV-3
[18] = system: UACC-257
[19] = system: UACC-62
[20] = system: A498

Compound	GI50 [1]	GI50 [2]	GI50 [3]	GI50 [4]	GI50 [5]	GI50 [6]	GI50 [7]	GI50 [8]	GI50 [9]	GI50 [10]	GI50 [11]	GI50 [12]	GI50 [13]	GI50 [14]	GI50 [15]	GI50 [16]	GI50 [17]	GI50 [18]	GI50 [19]	GI50 [20]
Cc1ccc(/N=N/c2c(O)c(C(=O)O)cc3ccccc23)cc1C	> 100 µM (inactive)	> 100 µM (inactive)	> 100 µM (inactive)	> 100 µM (inactive)	> 100 µM (inactive)	62.5 µM (inactive)	> 100 µM (inactive)	> 100 µM (inactive)	> 100 µM (inactive)	> 100 µM (inactive)	> 100 µM (inactive)	> 100 µM (inactive)	> 100 µM (inactive)	> 100 µM (inactive)	> 100 µM (inactive)	> 100 µM (inactive)	> 100 µM (inactive)	> 100 µM (inactive)	> 100 µM (inactive)	
Cc1cccc(NC(=S)Nc2ccccc2Cl)n1	34.3 µM (inactive)	47.6 µM (inactive)		> 100 µM (inactive)	21.9 µM (inactive)	22.3 µM (inactive)	> 100 µM (inactive)		> 100 µM (inactive)			> 100 µM (inactive)	> 100 µM (inactive)	20.7 µM (inactive)	28.7 µM (inactive)	27.9 µM (inactive)	25.8 µM (inactive)	22.2 µM (inactive)	41 µM (inactive)	24.9 µM (inactive)
Cc1cc(N(CCC#N)CCC#N)ccc1/N=N/c1ccc(S(N)(=O)=O)cc1	> 100 µM (inactive)	> 100 µM (inactive)	> 100 µM (inactive)	> 100 µM (inactive)	> 100 µM (inactive)	> 100 µM (inactive)	> 100 µM (inactive)		> 100 µM (inactive)	> 100 µM (inactive)	> 100 µM (inactive)		> 100 µM (inactive)	> 100 µM (inactive)	> 100 µM (inactive)	> 100 µM (inactive)	> 100 µM (inactive)	> 100 µM (inactive)	> 100 µM (inactive)	> 100 µM (inactive)
CCCCCC(C[N+]1(C)CCOCC1)C(=O)/C=C/c1ccccc1 (stereo unspecified)	2 µM (inactive)	22.9 µM (inactive)	23.6 µM (inactive)	15.7 µM (inactive)	19.9 µM (inactive)	30 µM (inactive)	5.31 µM (inactive)		3.03 µM (inactive)	14.7 µM (inactive)	3.03 µM (inactive)		1.54 µM (inactive)	14.4 µM (inactive)	9.64 µM (inactive)	13.4 µM (inactive)	46.5 µM (inactive)	13.4 µM (inactive)	9.59 µM (inactive)	15.1 µM (inactive)
COc1ccc(OC(=O)CC2Cc3cc(OC)c(OC)c(OC)c3-c3ccc(SC)c(=O)cc32)cc1 (stereo unspecified)	0.0551 µM (active)	0.762 µM (active)	0.792 µM (active)	0.403 µM (active)	> 28.7 µM (inactive)	0.183 µM (active)	0.342 µM (active)		0.387 µM (active)	0.421 µM (active)	0.2 µM (active)		0.128 µM (active)	0.115 µM (active)	2.74 µM (inactive)	0.378 µM (active)	0.0277 µM (active)	0.273 µM (active)	0.232 µM (active)	0.0332 µM (active)
O=P1(NCCCl)OCCC(OO)N1CCCl (stereo unspecified)	26.1 µM (inactive)	> 71.9 µM (inactive)	14.4 µM (inactive)	33.1 µM (inactive)	> 100 µM (inactive)	52.4 µM (inactive)	36.6 µM (inactive)	> 100 µM (inactive)	> 36.9 µM (inactive)	28.4 µM (inactive)	11.5 µM (inactive)	68.5 µM (inactive)	7.03 µM (inactive)	17.8 µM (inactive)	35.2 µM (inactive)	93.5 µM (inactive)	> 94 µM (inactive)	32.1 µM (inactive)	21.1 µM (inactive)	
CSC(SC)=C1Sc2cccc(Cl)c2S1	28.5 µM (inactive)	> 100 µM (inactive)	74 µM (inactive)	20.4 µM (inactive)	35.4 µM (inactive)	> 100 µM (inactive)	29 µM (inactive)		31.8 µM (inactive)	55.2 µM (inactive)	26.1 µM (inactive)		36.2 µM (inactive)	43.7 µM (inactive)	> 100 µM (inactive)	33.3 µM (inactive)	98.4 µM (inactive)	> 100 µM (inactive)	95.1 µM (inactive)	76.4 µM (inactive)
